This note sets out measurements from patent US20250376461A1, “INDAZOLE DERIVATIVES FOR TREATING TRPM3-MEDIATED DISORDERS” (Katholieke Universiteit Leuven, priority 2022, published 2025).

The term IC50 denotes the concentration needed to halve the response being measured. Read a low IC50 as inhibition by little substance.

The target in the assay is T1, mouse TRPM3α2 (mTRPM3) ion channel (Mus musculus, UniProt J9SQF3).
T1 construct: expressed in transfected cells; host or cells: flip-in HEK293
T1 sequence (J9SQF3 1-1709 isoform J9SQF3-12): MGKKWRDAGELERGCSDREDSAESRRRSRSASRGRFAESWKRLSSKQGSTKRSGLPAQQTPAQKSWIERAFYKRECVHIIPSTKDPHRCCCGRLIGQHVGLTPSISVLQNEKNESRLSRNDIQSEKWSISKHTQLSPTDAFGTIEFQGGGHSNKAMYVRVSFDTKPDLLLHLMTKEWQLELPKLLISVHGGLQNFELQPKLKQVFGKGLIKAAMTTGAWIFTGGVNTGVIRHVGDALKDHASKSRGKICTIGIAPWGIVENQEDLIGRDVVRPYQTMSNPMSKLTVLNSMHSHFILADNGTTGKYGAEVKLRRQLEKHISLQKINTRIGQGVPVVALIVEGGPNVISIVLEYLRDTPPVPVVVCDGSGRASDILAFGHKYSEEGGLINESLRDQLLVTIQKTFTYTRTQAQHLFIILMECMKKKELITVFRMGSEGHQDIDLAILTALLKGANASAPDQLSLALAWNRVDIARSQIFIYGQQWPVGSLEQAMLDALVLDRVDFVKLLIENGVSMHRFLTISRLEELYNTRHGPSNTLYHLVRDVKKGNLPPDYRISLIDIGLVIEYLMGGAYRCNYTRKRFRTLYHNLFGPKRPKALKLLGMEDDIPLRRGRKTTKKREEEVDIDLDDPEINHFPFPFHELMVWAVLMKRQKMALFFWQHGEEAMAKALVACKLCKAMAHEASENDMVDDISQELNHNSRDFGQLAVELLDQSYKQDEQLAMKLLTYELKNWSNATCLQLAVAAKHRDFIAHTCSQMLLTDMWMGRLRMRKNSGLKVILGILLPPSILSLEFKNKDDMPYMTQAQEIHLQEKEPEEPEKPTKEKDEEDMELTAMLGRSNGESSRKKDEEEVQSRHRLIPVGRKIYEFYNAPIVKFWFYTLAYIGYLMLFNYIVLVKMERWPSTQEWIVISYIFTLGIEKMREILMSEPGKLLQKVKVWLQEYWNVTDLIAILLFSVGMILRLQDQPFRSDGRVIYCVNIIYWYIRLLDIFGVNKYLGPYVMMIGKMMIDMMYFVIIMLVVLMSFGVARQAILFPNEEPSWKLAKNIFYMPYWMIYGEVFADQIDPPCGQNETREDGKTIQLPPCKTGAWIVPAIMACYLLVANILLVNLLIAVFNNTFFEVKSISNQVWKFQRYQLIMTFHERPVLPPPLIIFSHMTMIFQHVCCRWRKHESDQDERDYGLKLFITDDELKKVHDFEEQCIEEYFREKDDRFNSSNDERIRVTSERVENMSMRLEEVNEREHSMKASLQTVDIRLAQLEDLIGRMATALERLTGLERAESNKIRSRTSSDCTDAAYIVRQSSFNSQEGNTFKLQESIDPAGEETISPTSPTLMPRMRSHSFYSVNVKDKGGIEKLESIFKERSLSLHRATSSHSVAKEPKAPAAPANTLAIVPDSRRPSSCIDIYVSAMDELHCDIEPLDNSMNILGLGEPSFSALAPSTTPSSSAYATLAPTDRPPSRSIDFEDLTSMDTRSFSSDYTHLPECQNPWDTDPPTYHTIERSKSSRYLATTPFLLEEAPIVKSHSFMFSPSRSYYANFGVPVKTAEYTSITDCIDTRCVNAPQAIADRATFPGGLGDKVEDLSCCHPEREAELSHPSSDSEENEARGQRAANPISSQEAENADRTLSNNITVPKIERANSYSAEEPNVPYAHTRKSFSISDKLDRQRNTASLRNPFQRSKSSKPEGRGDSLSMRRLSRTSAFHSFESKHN
Nature of the assay: TRPM3 ion channel driven Ca2+ uptake, Fluo-4 AM assay, mTRPM3alpha2 overexpressing flip-in HEK293 cells stimulated with pregnenolone sulfate (50 μM). The assay is classed as cell-based. Conditions: mTRPM3 overexpressing HEK293 cells stimulated with pregnenolone sulfate (50 μM), activity ranges A, B, C. The method, boiled down: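 Ca2+ influx via mouse TRPM3α2 was opened with pregnenolone sulfate (50 μM) and tracked by Fluo-4 AM fluorescence at 485/535 nm, read directly after adding about 2000 stably transfected HEK293 cells per well to compound. IC50 values come from percent inhibition scaled to vehicle and positive-control inhibitor signals.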
Turning to `Cn1nc2ccc(OCc3ccccn3)cc2c1C(=O)NC(CO)CC(F)(F)F` (single isomer, unassigned) [Cpd 226-En2], the IC50 is greater than 20 µM. As for `Cn1nc2ccc(OCc3ccccn3)cc2c1C(=O)NC(CO)C(C(F)(F)F)C(F)(F)F` (single isomer, unassigned) [Cpd 227 - En1], the figure is less than 1 µM. Regarding `Cn1nc2ccc(OCc3ccccn3)cc2c1C(=O)NC(CO)C(C(F)(F)F)C(F)(F)F` (single isomer, unassigned) [Cpd 227 - En2], the half-inhibitory concentration (IC50) is greater than 20 µM. `Cn1nc2ccc(OCc3ccccn3)cc2c1C(=O)NC(CO)CC(F)F` (single isomer, unassigned) [Cpd 228 - En1] gave a half-inhibitory concentration (IC50) of less than 1 µM. For `Cn1nc2ccc(OCc3ccccn3)cc2c1C(=O)NC(CO)CC(F)F` (single isomer, unassigned) [Cpd 228 - En2] the value was greater than 20 µM; for `CN(C)CC(C)(CC(F)F)NC(=O)c1c2cc(OCc3ccccn3)ccc2nn1C` (single isomer, unassigned) [Cpd 229 - En1, N-[1-(dimethylamino)-4,4-difluoro-2-methylbutan-2-yl]-2-methyl-5-[(pyridin-2-yl)methoxy]-2H-indazole-3-carboxamide], 1 to 20 µM.

In the case of `CN(C)CC(C)(CC(F)F)NC(=O)c1c2cc(OCc3ccccn3)ccc2nn1C` (single isomer, unassigned) [Cpd 229 - En2, N-[1-(dimethylamino)-4,4-difluoro-2-methylbutan-2-yl]-2-methyl-5-[(pyridin-2-yl)methoxy]-2H-indazole-3-carboxamide], the IC50 was greater than 20 µM.

In turn, `COCC(C)(CC(F)F)NC(=O)c1c2cc(OCc3ccccn3)ccc2nn1C` (single isomer, unassigned) [Cpd 230 - En1] came in with an IC50 greater than 20 µM. For `COCC(C)(CC(F)F)NC(=O)c1c2cc(OCc3ccccn3)ccc2nn1C` (single isomer, unassigned) [Cpd 230 - En2] the value was 1 to 20 µM; for `CC(=O)C(C)(CO)NC(=O)c1c2cc(OCc3ccccn3)ccc2nn1C` (single isomer, unassigned) [Cpd 232 - En1], 1 to 20 µM; for `CC(=O)C(C)(CO)NC(=O)c1c2cc(OCc3ccccn3)ccc2nn1C` (single isomer, unassigned) [Cpd 232 - En2], less than 1 µM. As for `Cn1nc2ccc(OCc3ccccn3)cc2c1C(=O)NC1(CO)CC1(F)F` (single isomer, unassigned) [Cpd 235 - En1, N-[2,2-difluoro-1-(hydroxymethyl)cyclopropyl]-2-methyl-5-[(pyridin-2-yl)methoxy]-2H-indazole-3-carboxamide], the figure is greater than 20 µM; as for `Cn1nc2ccc(OCc3ccccn3)cc2c1C(=O)NC1(CO)CC1(F)F` (single isomer, unassigned) [Cpd 235 - En2, N-[2,2-difluoro-1-(hydroxymethyl)cyclopropyl]-2-methyl-5-[(pyridin-2-yl)methoxy]-2H-indazole-3-carboxamide], 1 to 20 µM; as for `Cn1nc2ccc(OCc3ccccn3)cc2c1C(=O)NC1(CO)CC1C(F)F` (single isomer, unassigned) [Cpd 237 - En1], 1 to 20 µM.

With `Cn1nc2ccc(OCc3ccccn3)cc2c1C(=O)NC1(CO)CC1C(F)F` (single isomer, unassigned) [Cpd 237 - En2], the concentration for half-maximal inhibition (IC50) is greater than 20 µM. As for `Cn1nc2ccc(OCc3ccccn3)cc2c1C(=O)NC(CO)c1nccn1C1CC1` (single isomer, unassigned) [Cpd 238 - En1], the figure is 1 to 20 µM; as for `Cn1nc2ccc(OCc3ccccn3)cc2c1C(=O)NC(CO)c1nccn1C1CC1` (single isomer, unassigned) [Cpd 238 - En2], 1 to 20 µM; as for `Cn1ccc(C(C)(CO)NC(=O)c2c3cc(OCc4ccccn4)ccc3nn2C)n1` (single isomer, unassigned) [Cpd 239 - En1], greater than 20 µM. Take `Cn1ccc(C(C)(CO)NC(=O)c2c3cc(OCc4ccccn4)ccc3nn2C)n1` (single isomer, unassigned) [Cpd 239 - En2]: the IC50 was greater than 20 µM. Compound `Cn1nc2ccc(OCc3ccccn3)cc2c1C(=O)NC(CO)CC(N)=O` (single isomer, unassigned) [Cpd 240 - En1, 4-hydroxy-3-({2-methyl-5-[(pyridin-2-yl)methoxy]-2H-indazol-3-yl}formamido)butanamide] displayed a concentration for half-maximal inhibition (IC50) greater than 20 µM.

Turning to `Cn1nc2ccc(OCc3ccccn3)cc2c1C(=O)NC(CO)CC(N)=O` (single isomer, unassigned) [Cpd 240 - En2, 4-hydroxy-3-({2-methyl-5-[(pyridin-2-yl)methoxy]-2H-indazol-3-yl}formamido)butanamide], the IC50 is greater than 20 µM. In turn, `Cn1nc2ccc(OCc3ccccn3)cc2c1C(=O)NC(CO)C1CCOCC1` (single isomer, unassigned) [Cpd 241 - En1] registered a half-inhibitory concentration (IC50) of 1 to 20 µM. For `Cn1nc2ccc(OCc3ccccn3)cc2c1C(=O)NC(CO)C1CCOCC1` (single isomer, unassigned) [Cpd 241 - En2] the value was greater than 20 µM.

On to `Cn1nc2ccc(OCc3ccccn3)cc2c1C(=O)NC(CO)Cc1ncccn1` (single isomer, unassigned) [Cpd 243 - En1], for which the half-inhibitory concentration (IC50) was greater than 20 µM. As for `Cn1nc2ccc(OCc3ccccn3)cc2c1C(=O)NC(CO)Cc1ncccn1` (single isomer, unassigned) [Cpd 243 - En2], the figure is greater than 20 µM; as for `Cn1nc2ccc(OCc3ccccn3)cc2c1C(=O)NCC(O)CC(F)(F)F` (single isomer, unassigned) [Cpd 245 - En1], greater than 20 µM.

For `Cn1nc2ccc(OCc3ccccn3)cc2c1C(=O)NCC(O)CC(F)(F)F` (single isomer, unassigned) [Cpd 245 - En2], the 50% inhibitory concentration (IC50) is greater than 20 µM. For `Cn1nc2ccc(OCc3ccccn3)cc2c1C(=O)NC1CNCC1C(F)(F)F` (single isomer, unassigned) [Cpd 246 - En1] the value was greater than 20 µM; for `Cn1nc2ccc(OCc3ccccn3)cc2c1C(=O)NC1CNCC1C(F)(F)F` (single isomer, unassigned) [Cpd 246 - En2], less than 1 µM. Turning to `Cn1nc2ccc(OCc3ccccn3)cc2c1C(=O)NC1(CC(F)F)CCCNC1` (single isomer, unassigned) [Cpd 248 - En1], the half-inhibitory concentration (IC50) was greater than 20 µM. For `Cn1nc2ccc(OCc3ccccn3)cc2c1C(=O)NC1(CC(F)F)CCCNC1` (single isomer, unassigned) [Cpd 248 - En2] the value was 1 to 20 µM. As for `Cn1ccc(C(CO)NC(=O)c2c3cc(OCc4ccccn4)ccc3nn2C)n1` (single isomer, unassigned) [Cpd 251 - En1], the figure is greater than 20 µM; as for `Cn1ccc(C(CO)NC(=O)c2c3cc(OCc4ccccn4)ccc3nn2C)n1` (single isomer, unassigned) [Cpd 251 - En2], greater than 20 µM. As for `Cn1nc2ccc(OCc3ccccn3)cc2c1C(=O)NC(CO)Cc1ccccn1` (single isomer, unassigned) [Cpd 252 - En1], the figure is greater than 20 µM.

Compound `Cn1nc2ccc(OCc3ccccn3)cc2c1C(=O)NC(CO)Cc1ccccn1` (single isomer, unassigned) [Cpd 252 - En2] showed a concentration for half-maximal inhibition (IC50) greater than 20 µM. As for `Cn1nc2ccc(OCc3ccccn3)cc2c1C(=O)NC1(CO)CCNC1=O` (single isomer, unassigned) [Cpd 253 - En1], the figure is less than 1 µM; as for `Cn1nc2ccc(OCc3ccccn3)cc2c1C(=O)NC1(CO)CCNC1=O` (single isomer, unassigned) [Cpd 253 - En2], 1 to 20 µM.
